# According to ChEMBL document CHEMBL4376865, “Discovery and Characterization of 1H-1,2,3-Triazole Derivatives as Novel Prostanoid EP4 Receptor Antagonists for Cancer Immunotherapy” (J Med Chem, 2020):
# How the values were obtained:
# [1] = biological target: Prostaglandin E2 receptor EP4 subtype (Homo sapiens, UniProt P35408)
# Description: Antagonist activity at human EP4 expressed in CHO cells coexpressing G16-alpha assessed as intracellular calcium flux preincubated for 15 mins followed by addition of PGE2 by calcium flux assay
# [2] = biological target: Prostaglandin E2 receptor EP4 subtype (Mus musculus, UniProt P32240); assay: Antagonist activity at mouse EP4 expressed in CHO cells coexpressing G16-alpha assessed as intracellular calcium flux preincubated for 15 mins followed by addition of PGE2 by calcium flux assay; assay type: functional, cell-based
# [3] = biological target: T1, Prostaglandin E2 receptor EP1 subtype (Homo sapiens, UniProt P34995); assay: Antagonist activity at human EP1 expressed in CHO cells coexpressing G16-alpha assessed as intracellular calcium flux preincubated for 15 mins followed by addition of PGE2 by calcium flux assay; assay type: functional, cell-based
# T1 sequence (P34995 whole entry): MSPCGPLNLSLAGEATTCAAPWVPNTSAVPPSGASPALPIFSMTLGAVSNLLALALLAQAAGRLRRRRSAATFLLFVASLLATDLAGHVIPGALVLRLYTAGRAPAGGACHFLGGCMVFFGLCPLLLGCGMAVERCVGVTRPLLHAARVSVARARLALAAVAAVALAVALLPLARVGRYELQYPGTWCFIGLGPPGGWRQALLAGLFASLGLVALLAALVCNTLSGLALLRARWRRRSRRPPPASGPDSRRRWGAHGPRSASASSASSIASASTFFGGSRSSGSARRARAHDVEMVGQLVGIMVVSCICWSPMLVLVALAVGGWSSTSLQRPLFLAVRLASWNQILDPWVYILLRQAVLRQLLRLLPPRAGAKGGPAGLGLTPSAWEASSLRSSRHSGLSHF
# [4] = biological target: Prostaglandin E2 receptor EP2 subtype (Homo sapiens, UniProt P43116)
# Description: Antagonist activity at human EP2 expressed in CHO cells coexpressing G16-alpha assessed as intracellular calcium flux preincubated for 15 mins followed by addition of PGE2 by calcium flux assay
# [5] = biological target: T2, Prostaglandin E2 receptor EP3 subtype (Homo sapiens, UniProt P43115)
# T2 sequence (P43115 whole entry): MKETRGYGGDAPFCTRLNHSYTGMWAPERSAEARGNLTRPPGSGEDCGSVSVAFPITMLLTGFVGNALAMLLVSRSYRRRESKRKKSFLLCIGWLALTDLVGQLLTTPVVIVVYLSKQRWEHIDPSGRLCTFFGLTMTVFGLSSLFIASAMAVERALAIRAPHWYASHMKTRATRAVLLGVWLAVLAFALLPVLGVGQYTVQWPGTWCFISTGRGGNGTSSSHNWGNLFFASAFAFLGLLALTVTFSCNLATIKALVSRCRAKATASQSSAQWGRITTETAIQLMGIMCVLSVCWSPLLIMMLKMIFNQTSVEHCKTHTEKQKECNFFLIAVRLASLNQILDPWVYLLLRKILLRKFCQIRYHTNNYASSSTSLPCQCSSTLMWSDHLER
# Description: Antagonist activity at human EP3 expressed in CHO cells coexpressing G16-alpha assessed as intracellular calcium flux preincubated for 15 mins followed by addition of PGE2 by calcium flux assay
# [6] = biological target: CYP2E1 (Homo sapiens, UniProt P05181); assay: Inhibition of CYP2E1 in human liver microsomes at 20 uM using chlorzoxazone as substrate incubated for 60 mins by HPLC analysis relative to control; assay type: ADME; conditions: probe chlorzoxazone
# [7] = biological target: CYP2D6 (Homo sapiens, UniProt P10635); assay: Inhibition of CYP2D6 in human liver microsomes at 20 uM using dextromethorphan as substrate incubated for 60 mins by HPLC analysis relative to control; assay type: ADME; conditions: probe dextromethorphan
# [8] = biological target: T3, CYP1A2 (Homo sapiens, UniProt P05177); assay: Inhibition of CYP1A2 in human liver microsomes at 20 uM using phenacetin as substrate incubated for 30 mins by HPLC analysis relative to control; assay type: ADME; conditions: probe phenacetin
# T3 sequence (P05177 whole entry): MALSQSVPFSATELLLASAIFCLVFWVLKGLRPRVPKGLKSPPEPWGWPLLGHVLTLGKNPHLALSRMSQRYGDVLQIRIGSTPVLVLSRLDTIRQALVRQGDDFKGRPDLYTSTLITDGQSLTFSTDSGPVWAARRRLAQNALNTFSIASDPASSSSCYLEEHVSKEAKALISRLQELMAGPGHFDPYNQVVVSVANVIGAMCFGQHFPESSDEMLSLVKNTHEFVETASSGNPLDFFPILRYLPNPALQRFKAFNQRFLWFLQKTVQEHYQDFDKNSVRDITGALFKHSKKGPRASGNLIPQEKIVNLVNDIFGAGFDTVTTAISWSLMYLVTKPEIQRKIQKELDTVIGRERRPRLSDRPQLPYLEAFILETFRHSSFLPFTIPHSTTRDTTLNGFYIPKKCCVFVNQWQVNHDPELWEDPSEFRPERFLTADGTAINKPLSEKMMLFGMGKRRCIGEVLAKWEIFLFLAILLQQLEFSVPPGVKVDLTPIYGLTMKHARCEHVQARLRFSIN
# [9] = biological target: T4, CYP2B6 (Homo sapiens, UniProt P20813); assay: Inhibition of CYP2B6 in human liver microsomes at 20 uM incubated for 60 mins by HPLC analysis relative to control; assay type: ADME
# T4 sequence (P20813 whole entry): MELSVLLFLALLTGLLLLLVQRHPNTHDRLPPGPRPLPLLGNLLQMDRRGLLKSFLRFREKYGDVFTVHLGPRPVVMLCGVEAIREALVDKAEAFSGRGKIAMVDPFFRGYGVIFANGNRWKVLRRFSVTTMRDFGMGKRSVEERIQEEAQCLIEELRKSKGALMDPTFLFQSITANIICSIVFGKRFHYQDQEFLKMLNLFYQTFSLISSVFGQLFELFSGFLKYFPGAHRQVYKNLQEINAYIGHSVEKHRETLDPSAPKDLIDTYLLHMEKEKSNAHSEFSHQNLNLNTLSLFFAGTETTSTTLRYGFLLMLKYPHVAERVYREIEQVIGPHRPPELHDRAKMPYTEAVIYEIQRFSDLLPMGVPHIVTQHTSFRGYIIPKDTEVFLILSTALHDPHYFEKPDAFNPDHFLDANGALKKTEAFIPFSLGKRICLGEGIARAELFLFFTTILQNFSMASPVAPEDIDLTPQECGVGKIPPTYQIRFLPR
# [10] = biological target: CYP2C9 (Homo sapiens, UniProt P11712); assay: Inhibition of CYP2C9 in human liver microsomes at 20 uM using tolbutamide as substrate incubated for 60 mins by HPLC analysis relative to control; assay type: ADME; conditions: probe tolbutamide
# [11] = biological target: Cytochrome P450 3A4 (Homo sapiens, UniProt P08684); assay: Inhibition of CYP3A4 in human liver microsomes at 20 uM using testosterone as substrate incubated for 60 mins by HPLC analysis; assay type: ADME; conditions: 1 h
# [12] = in vitro; conditions: human, liver microsomes
# [13] = in vitro; conditions: human, liver microsomes; remark: listed apart in the source
# [14] = in vitro; conditions: CD1, mouse, liver microsomes
# [15] = in vitro; conditions: CD1, mouse, liver microsomes; remark: listed apart in the source
# [16] = tested on: CT26; assay: Antitumor activity against mouse CT26 cells xenografted in BALB/c mouse assessed as tumor growth inhibition at 150 mg/kg, po administerd daily and measured after two weeks; conditions: 336 h, read-out: TGI
# Prostaglandin E2 receptor EP4 subtype (Homo sapiens, UniProt P35408), sequence (P35408 whole entry): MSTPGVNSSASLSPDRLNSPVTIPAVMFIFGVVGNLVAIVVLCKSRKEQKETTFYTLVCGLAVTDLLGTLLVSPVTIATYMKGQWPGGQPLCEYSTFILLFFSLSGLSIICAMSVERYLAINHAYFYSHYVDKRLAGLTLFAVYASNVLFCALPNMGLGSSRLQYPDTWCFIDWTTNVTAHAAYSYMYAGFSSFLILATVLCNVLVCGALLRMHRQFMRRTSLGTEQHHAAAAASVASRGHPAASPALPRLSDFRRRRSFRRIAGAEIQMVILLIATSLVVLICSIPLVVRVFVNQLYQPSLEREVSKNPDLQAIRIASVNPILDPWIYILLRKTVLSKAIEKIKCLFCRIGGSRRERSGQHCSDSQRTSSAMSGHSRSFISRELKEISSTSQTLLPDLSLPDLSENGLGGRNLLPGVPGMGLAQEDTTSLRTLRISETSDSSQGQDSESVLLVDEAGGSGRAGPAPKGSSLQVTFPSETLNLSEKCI
# Prostaglandin E2 receptor EP4 subtype (Mus musculus, UniProt P32240), sequence (P32240 whole entry): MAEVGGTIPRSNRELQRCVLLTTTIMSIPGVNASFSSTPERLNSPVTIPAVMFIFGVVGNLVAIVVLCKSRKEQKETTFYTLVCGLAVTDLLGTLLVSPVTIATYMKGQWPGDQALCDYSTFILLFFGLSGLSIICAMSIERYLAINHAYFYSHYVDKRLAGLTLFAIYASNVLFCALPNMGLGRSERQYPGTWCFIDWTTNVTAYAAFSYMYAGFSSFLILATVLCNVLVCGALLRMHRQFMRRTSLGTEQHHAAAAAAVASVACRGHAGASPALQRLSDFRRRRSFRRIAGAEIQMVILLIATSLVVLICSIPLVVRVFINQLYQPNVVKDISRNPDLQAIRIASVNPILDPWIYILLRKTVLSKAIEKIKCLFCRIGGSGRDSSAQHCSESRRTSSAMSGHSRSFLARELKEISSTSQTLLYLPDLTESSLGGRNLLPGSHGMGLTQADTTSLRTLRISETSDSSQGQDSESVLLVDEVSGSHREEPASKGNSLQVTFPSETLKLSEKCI
# Prostaglandin E2 receptor EP2 subtype, sequence (P43116 whole entry): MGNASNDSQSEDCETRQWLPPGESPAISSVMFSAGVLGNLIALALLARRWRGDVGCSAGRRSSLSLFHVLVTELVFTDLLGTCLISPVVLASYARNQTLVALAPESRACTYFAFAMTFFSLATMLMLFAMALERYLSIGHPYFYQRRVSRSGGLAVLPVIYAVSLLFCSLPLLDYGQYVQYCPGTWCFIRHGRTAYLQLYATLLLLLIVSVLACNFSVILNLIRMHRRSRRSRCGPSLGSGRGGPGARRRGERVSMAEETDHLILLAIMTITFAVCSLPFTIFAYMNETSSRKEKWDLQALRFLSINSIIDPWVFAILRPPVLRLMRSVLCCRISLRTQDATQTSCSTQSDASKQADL
# CYP2C9, sequence (P11712 whole entry): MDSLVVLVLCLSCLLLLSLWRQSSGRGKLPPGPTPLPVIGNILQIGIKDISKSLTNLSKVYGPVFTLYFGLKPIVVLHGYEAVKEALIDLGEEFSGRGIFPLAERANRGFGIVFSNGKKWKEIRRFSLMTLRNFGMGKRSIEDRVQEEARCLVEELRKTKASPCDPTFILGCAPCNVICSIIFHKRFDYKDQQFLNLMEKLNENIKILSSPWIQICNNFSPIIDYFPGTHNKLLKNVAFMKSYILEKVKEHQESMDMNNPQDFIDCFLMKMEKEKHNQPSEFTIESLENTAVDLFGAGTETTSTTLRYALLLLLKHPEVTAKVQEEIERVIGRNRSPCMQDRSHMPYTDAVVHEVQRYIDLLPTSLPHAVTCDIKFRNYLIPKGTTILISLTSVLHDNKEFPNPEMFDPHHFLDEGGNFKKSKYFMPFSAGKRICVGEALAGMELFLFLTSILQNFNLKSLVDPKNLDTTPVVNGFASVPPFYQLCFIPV
# CYP2E1, sequence (P05181 whole entry): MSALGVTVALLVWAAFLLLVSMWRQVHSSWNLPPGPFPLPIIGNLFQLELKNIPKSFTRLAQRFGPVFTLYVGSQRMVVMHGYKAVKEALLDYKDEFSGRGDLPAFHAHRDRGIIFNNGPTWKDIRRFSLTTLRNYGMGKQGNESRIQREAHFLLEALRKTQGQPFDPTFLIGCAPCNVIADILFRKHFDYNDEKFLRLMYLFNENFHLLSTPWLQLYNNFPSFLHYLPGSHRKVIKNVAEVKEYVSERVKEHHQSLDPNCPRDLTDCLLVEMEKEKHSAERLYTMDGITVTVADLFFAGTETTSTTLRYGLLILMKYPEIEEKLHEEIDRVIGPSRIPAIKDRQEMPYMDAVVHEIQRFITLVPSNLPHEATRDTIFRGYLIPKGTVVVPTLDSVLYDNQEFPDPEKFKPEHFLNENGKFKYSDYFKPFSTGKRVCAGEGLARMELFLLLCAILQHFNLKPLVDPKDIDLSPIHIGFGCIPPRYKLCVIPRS
# Cytochrome P450 3A4, sequence (P08684 whole entry): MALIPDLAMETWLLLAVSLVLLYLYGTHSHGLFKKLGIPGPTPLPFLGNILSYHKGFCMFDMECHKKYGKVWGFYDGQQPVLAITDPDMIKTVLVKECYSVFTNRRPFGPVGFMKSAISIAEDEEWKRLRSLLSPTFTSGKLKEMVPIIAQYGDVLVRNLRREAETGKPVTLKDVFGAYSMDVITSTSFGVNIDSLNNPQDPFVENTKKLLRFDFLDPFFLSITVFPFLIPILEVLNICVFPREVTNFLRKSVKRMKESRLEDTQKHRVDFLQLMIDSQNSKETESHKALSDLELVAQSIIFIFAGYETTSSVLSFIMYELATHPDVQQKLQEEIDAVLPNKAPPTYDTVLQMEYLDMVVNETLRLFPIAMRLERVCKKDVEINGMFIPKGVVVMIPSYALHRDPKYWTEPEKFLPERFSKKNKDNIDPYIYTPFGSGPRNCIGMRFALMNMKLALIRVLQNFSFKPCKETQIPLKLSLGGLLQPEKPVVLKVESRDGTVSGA
# CYP2D6, sequence (P10635 whole entry): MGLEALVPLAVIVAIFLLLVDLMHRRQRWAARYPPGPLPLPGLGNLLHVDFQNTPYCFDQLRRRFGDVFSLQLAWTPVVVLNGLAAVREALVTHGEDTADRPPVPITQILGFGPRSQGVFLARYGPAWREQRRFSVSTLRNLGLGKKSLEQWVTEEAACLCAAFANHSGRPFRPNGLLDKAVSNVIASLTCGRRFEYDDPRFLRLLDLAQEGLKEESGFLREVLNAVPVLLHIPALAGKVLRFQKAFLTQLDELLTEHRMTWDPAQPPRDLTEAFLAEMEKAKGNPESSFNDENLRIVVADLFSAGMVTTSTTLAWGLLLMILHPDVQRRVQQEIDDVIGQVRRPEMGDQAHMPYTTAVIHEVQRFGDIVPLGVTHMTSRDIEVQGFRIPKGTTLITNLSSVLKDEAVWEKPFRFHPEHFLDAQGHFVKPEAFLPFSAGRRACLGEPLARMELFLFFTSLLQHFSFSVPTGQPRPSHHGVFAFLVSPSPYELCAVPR
compound,measurement,setting,value
COc1ccc(Cn2nnc(-c3ccccc3)c2C(=O)N[C@@H](C)c2ccc(C(=O)O)cc2)cc1OC,IC50,[1],119 nM
C[C@H](NC(=O)c1c(C2CCCCC2)nnn1Cc1ccc(C(F)(F)F)cc1)c1ccc(C(=O)O)cc1,IC50,[1],161 nM
Cc1ccc(-c2nnn(Cc3ccc(C(F)(F)F)cc3)c2C(=O)N[C@@H](C)c2ccc(C(=O)O)cc2)s1,IC50,[2],42.1 nM
same,IC50,[3],> 10000 nM
same,IC50,[4],> 10000 nM
same,IC50,[5],> 10000 nM
C/C=C/c1nnn(Cc2ccc(C(F)(F)F)cc2)c1C(=O)NCC1CCC(C(=O)O)CC1 (stereo not drawn),IC50,[2],220 nM
C[C@H](NC(=O)c1c(-c2ccc(F)cc2)nnn1Cc1ccc(C(F)(F)F)cc1)c1ccc(C(=O)O)cc1,IC50,[1],57.9 nM
C[C@H](NC(=O)c1c(C2=CCCCC2)nnn1Cc1ccc(C(F)(F)F)cc1)c1ccc(C(=O)O)cc1,IC50,[1],183 nM
C[C@H](NC(=O)c1c(-c2ccccc2)nnn1CCOc1ccc(C(F)(F)F)cc1)c1ccc(C(=O)O)cc1,IC50,[1],49.1 nM
C/C=C/c1nnn(Cc2ccc(C(F)(F)F)cc2)c1C(=O)NC1(c2ccc(C(=O)O)cc2)CC1,IC50,[2],33.7 nM
same,IC50,[1],13.9 nM
C[C@H](NC(=O)c1nnn(CCc2ccc(F)cc2)c1C(F)(F)F)c1ccc(C(=O)O)cc1,IC50,[1],> 10000 nM
C[C@H](NC(=O)c1c(-c2ccccc2)nnn1CC1CCCCC1)c1ccc(C(=O)O)cc1,IC50,[1],> 10000 nM
C[C@H](NC(=O)c1nnn(Cc2ccc(C(F)(F)F)cc2)c1C(F)(F)F)c1ccc(C(=O)O)cc1,IC50,[1],> 10000 nM
CCc1nnn(Cc2ccc(C(F)(F)F)cc2)c1C(=O)N[C@@H](C)c1ccc(C(=O)O)cc1,IC50,[1],> 10000 nM
C[C@H](NC(=O)c1c(C2CCC2)nnn1Cc1ccc(C(F)(F)F)cc1)c1ccc(C(=O)O)cc1,IC50,[1],75.3 nM
CC#Cc1nnn(Cc2ccc(C(F)(F)F)cc2)c1C(=O)N[C@@H](C)c1ccc(C(=O)O)cc1,"inhibition at 1 h, 20 µM",[6],76%
same,"inhibition at 1 h, 20 µM",[7],38%
same,IC50,[2],70.9 nM
same,IC50,[3],> 10000 nM
same,"inhibition at 0.5 h, 20 µM",[8],82%
same,"inhibition at 1 h, 20 µM",[9],34%
same,"inhibition at 1 h, 20 µM",[10],69%
same,inhibition (INH),[11],Not Active
same,IC50,[1],32 nM
same,IC50,[4],> 10000 nM
O=C(O)Cc1ccccc1Nc1c(Cl)cccc1Cl [DICLOFENAC],"half-life at 1 h, 10 µM",[12],10.6 min
same,"microsomal CLint at 1 h, 10 µM",[13],131 µL/min/mg
same,"half-life at 1 h, 10 µM",[14],53.6 min
same,"microsomal CLint at 1 h, 10 µM",[15],25.8 µL/min/mg
C[C@H](NC(=O)c1c(C(F)F)nn(C)c1Oc1cccc(C(F)(F)F)c1)c1ccc(C(=O)O)cc1 [PALUPIPRANT],"inhibition at 1 h, 20 µM",[6],79%
same,"inhibition at 1 h, 20 µM",[7],35%
same,IC50,[2],181 nM
same,"inhibition at 0.5 h, 20 µM",[8],41%
same,"inhibition at 1 h, 20 µM",[9],23%
same,"inhibition at 1 h, 20 µM",[10],67%
same,inhibition (INH),[11],Not Active
same,inhibition in vivo at 150 mg/kg,[16],43.2%
C[C@]12CC[C@H]3[C@@H](CCC4=CC(=O)CC[C@@]43C)[C@@H]1CC[C@@H]2O [TESTOSTERONE],"half-life at 1 h, 10 µM",[12],19.4 min
same,"microsomal CLint at 1 h, 10 µM",[13],71.3 µL/min/mg
same,"half-life at 1 h, 10 µM",[14],2.9 min
same,"microsomal CLint at 1 h, 10 µM",[15],479 µL/min/mg
